The values that follow come from patent US20050282743A1, “Molecular interactions in cells” (Arbor Vita Corporation, priority 2001, published 2005).

Ends that are not written are not given here. Peptide text beside a SMILES is read from it. * marks the point of attachment. Biotin = O=C1N[C@H]2[C@H](CS[C@H]2CCCCC(=O)*)N1

Common to all, as to experiment: G' assay (10 uM PL peptide), results of TABLE 7 and TABLE 12
Assay type in all cases: binding

The target in experiment [1] is T1, PDZ protein (GST-PDZ fusion) (Homo sapiens, UniProt Q12923).
T1 construct: made in house; host or cells: E. coli (DH5alpha, BL21 or JM109)
T1 sequence (Q12923 whole entry, the tested form may be a part): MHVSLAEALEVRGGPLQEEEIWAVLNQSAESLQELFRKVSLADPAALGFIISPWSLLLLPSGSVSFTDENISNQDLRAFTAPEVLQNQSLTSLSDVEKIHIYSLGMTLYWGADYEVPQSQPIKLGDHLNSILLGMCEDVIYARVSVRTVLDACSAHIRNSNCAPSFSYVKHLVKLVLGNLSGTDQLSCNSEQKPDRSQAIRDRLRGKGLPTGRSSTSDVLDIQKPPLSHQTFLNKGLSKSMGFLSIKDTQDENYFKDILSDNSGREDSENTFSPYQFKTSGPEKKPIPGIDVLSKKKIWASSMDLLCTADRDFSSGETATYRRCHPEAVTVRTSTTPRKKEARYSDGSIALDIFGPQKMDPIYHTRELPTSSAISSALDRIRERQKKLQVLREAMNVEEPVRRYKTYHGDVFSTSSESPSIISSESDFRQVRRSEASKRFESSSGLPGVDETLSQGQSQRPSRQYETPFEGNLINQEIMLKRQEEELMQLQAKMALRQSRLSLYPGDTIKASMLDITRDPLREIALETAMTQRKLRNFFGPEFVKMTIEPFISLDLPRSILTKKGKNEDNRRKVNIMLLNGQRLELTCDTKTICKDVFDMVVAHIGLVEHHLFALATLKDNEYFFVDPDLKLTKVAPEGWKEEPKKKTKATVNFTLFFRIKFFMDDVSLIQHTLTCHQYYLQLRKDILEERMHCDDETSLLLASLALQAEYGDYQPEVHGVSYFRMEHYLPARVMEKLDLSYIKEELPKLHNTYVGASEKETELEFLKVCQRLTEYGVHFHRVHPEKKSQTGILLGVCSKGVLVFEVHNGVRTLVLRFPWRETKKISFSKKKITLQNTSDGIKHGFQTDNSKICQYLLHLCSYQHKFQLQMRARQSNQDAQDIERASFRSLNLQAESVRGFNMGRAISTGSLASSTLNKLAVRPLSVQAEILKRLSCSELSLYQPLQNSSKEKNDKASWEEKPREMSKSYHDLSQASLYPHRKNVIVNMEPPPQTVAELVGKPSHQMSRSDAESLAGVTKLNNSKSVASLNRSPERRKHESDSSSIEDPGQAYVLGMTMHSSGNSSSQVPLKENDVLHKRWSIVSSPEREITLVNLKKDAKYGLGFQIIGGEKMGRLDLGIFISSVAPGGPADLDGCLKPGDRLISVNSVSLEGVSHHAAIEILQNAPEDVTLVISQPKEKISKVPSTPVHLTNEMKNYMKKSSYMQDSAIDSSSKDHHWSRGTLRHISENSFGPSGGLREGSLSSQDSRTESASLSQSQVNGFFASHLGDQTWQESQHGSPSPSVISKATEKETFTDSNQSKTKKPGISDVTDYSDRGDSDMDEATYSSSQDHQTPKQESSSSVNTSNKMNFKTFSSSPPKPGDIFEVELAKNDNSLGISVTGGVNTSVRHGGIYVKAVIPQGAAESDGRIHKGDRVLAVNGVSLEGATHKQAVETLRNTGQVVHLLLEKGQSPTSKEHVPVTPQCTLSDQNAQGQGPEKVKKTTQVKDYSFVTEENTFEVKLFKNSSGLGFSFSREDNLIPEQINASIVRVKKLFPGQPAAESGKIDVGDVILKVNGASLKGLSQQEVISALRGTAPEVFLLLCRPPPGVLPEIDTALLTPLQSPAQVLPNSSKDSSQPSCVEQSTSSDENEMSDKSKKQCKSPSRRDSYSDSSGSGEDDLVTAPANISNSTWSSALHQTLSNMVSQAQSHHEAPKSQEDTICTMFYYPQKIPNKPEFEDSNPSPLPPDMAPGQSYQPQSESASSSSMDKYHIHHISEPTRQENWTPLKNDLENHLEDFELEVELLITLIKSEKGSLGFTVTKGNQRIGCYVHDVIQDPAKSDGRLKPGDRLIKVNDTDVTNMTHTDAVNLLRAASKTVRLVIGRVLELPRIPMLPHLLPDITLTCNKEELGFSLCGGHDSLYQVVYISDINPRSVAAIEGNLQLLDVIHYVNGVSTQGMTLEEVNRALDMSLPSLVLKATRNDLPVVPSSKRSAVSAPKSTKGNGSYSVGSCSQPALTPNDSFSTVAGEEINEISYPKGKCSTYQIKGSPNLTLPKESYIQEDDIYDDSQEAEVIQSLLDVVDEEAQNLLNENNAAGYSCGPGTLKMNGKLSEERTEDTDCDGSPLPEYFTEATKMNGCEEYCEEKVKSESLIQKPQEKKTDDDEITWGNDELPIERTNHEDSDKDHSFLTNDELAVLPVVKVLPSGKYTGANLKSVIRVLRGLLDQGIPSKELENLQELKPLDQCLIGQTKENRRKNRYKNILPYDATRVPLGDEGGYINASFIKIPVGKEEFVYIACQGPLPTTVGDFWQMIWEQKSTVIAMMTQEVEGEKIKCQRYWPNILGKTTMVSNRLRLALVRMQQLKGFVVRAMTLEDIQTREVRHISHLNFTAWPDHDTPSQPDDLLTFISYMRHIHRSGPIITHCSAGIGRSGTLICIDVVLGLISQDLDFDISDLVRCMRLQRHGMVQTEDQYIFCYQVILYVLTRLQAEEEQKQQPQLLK
The method in brief: (§1)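 Biotinylated PL peptides at 10 uM (vs 20 uM in G^0 assay) bound to GST-PDZ fusions; PDZ protein at 5 ug/ml unless another concentration listed. Bound peptide read as A450 nm, classified 0–5 (0 = A450 0; 5 = A450 >4 repeated).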

Experiment [2] addresses T2, PDZ protein (GST-PDZ fusion) (Homo sapiens, UniProt Q6P0Q8).
T2 construct: made in house; host or cells: E. coli (DH5alpha, BL21 or JM109)
A digest of the protocol:
as §1

In experiment [3] the target is T3, PDZ protein (GST-PDZ fusion) (Homo sapiens, UniProt Q96JH8).
T3 construct: made in house; host or cells: E. coli (DH5alpha, BL21 or JM109)
T3 sequence (Q96JH8 1-1075): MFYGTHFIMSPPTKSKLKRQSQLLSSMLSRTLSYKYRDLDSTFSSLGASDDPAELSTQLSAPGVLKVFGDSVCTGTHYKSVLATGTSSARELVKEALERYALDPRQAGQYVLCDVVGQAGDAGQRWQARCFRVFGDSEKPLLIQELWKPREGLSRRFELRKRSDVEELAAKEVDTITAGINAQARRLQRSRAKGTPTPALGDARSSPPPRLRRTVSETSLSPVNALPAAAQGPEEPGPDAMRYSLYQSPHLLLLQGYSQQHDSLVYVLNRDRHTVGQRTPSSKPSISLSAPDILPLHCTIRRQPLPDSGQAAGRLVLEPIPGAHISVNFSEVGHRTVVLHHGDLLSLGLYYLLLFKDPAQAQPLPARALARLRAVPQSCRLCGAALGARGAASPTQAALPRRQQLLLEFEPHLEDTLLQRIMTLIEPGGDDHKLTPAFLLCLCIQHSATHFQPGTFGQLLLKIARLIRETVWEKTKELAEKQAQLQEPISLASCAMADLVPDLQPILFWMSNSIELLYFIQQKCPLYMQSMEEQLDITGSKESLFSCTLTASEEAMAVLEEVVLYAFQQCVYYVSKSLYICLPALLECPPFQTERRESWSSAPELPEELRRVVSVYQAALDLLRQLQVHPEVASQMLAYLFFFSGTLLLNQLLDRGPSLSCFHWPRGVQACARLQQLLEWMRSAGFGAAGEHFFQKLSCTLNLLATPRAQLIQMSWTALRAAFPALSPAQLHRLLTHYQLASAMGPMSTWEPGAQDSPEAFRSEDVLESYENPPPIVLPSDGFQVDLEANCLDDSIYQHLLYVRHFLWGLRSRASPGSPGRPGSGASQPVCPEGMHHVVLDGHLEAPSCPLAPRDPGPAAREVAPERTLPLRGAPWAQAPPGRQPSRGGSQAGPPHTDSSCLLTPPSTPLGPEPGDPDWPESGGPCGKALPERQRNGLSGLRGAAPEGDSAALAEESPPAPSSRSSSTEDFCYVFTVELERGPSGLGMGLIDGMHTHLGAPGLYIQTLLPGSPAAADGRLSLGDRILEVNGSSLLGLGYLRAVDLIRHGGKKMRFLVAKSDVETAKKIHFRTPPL
The note with it: PDZ FLJ 10324, PDZ Domain 1. The method in brief:
as §1

The subject of experiment [4] is PDZ protein (GST-PDZ fusion). The method in brief: as §1
The mark [5] stands for this setting: PDZ HEMBA 1003117, PDZ Domain 1.
Setting [6] is: PDZ KIAA807, PDZ Domain not given.

T2 sequence (Q6P0Q8 whole entry, the tested form may be a part): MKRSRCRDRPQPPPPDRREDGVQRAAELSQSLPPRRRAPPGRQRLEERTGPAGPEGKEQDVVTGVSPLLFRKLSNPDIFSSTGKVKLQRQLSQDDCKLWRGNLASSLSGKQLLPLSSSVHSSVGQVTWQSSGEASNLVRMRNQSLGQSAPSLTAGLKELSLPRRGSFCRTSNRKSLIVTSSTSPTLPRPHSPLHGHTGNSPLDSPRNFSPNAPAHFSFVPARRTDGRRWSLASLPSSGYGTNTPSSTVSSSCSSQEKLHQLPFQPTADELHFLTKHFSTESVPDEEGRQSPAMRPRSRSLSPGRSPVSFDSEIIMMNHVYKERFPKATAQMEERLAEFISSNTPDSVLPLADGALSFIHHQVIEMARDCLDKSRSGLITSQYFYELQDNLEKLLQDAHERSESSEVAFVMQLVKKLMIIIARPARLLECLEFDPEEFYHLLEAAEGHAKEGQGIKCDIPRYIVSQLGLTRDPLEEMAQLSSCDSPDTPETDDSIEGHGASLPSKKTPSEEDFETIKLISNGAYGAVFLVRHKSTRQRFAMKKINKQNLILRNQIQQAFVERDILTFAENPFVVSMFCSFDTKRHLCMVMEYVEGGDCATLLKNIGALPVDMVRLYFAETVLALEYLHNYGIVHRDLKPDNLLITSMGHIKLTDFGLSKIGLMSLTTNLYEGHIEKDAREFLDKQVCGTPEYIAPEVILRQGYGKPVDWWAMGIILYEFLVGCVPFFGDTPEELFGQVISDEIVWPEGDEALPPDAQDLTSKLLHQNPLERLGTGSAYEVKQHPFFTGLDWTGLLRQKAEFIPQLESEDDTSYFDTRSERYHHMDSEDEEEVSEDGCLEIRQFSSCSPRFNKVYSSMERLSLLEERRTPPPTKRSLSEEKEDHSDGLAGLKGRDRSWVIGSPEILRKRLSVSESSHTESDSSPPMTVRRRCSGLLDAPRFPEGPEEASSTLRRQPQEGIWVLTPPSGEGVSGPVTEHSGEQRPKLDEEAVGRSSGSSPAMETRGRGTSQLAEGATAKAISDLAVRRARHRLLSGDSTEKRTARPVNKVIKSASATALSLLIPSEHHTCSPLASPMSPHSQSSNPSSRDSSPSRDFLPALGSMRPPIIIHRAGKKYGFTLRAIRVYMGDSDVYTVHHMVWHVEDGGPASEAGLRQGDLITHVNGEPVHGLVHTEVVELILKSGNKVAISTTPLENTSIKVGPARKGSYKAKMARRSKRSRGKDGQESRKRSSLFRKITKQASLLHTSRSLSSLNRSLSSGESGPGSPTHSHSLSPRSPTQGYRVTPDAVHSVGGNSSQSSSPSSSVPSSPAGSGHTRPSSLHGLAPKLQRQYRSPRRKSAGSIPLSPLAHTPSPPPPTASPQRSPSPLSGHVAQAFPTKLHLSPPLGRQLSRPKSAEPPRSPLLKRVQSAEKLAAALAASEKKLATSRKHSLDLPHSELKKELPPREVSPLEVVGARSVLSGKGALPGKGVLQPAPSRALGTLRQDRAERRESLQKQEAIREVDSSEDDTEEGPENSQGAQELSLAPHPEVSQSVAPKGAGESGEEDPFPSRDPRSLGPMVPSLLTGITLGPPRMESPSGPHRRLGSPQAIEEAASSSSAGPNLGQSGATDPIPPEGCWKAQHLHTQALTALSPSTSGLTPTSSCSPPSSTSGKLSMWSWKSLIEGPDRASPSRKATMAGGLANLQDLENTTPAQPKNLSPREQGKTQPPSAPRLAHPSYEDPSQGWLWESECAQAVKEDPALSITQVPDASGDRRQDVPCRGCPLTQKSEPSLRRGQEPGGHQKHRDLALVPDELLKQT

Regarding `CC(C)C[C@H](NC(=O)CNC(=O)[C@@H](NC(=O)[C@H](CO)NC(=O)[C@H](CC(N)=O)NC(=O)[C@H](Cc1ccccc1)NC(=O)CNC(=O)[C@H](C)NC(=O)[C@H](C)NC(=O)[C@H](Cc1ccccc1)NC(=O)[C@@H](NC(=O)CCCC[C@@H]1SC[C@@H]2NC(=O)N[C@@H]21)[C@@H](C)O)[C@@H](C)O)C(=O)N1CCC[C@H]1C(=O)N[C@@H](Cc1c[nH]cn1)C(=O)N[C@@H](CO)C(=O)N[C@H](C(=O)N[C@H](C(=O)N[C@@H](CCCNC(=N)N)C(=O)N[C@H](C(=O)O)C(C)C)[C@@H](C)O)[C@@H](C)O` [Neuroligin] (Biotin-TFAAGFNSTGLPHSTTRV-OH; C-terminus assumed), the Classification is recorded as 1 (A450 nm 0-1) in experiment [1] (PDZ PTPL-1, PDZ Domain 2); 1 (A450 nm 0-1) in experiment [1] (PDZ PTPL-1, PDZ Domain 4); 3 (A450 nm 2-3) in experiment [2] (PDZ KIAA807); 1 (A450 nm 0-1) in experiment [3]; 2 (A450 nm 1-2) in experiment [4] (PDZ SHANK, PDZ Domain 1).
`CC(C)C[C@H](NC(=O)[C@H](CC(C)C)NC(=O)[C@@H](NC(=O)[C@H](CC(=O)O)NC(=O)CCCC[C@@H]1SC[C@@H]2NC(=O)N[C@@H]21)[C@@H](C)O)C(=O)N[C@@H](CC(C)C)C(=O)N[C@H](C(=O)N[C@@H](CCC(=O)O)C(=O)N[C@@H](CC(N)=O)C(=O)N[C@@H](CCC(=O)O)C(=O)NCC(=O)N[C@@H](CC(=O)O)C(=O)N[C@@H](CCCCN)C(=O)N[C@H](C(=O)N[C@@H](CCC(=O)O)C(=O)N[C@@H](CCC(=O)O)C(=O)N[C@@H](CCC(N)=O)C(=O)N[C@H](C(=O)N[C@@H](CO)C(=O)N[C@@H](Cc1ccc(O)cc1)C(=O)N[C@H](C(=O)O)C(C)C)C(C)C)[C@@H](C)O)[C@@H](C)O` [5H2B_HUMAN] (Biotin-DTLLLTENEGDKTEEQVSYV-OH; C-terminus assumed): the Classification in experiment [1] (PDZ PTPL-1, PDZ Domain 2) was 5 (A450 nm of 4 more than 2× repeated); in experiment [1] (PDZ PTPL-1, PDZ Domain 4), 2 (A450 nm 1-2); in experiment [2] (PDZ KIAA807), 1 (A450 nm 0-1); in experiment [2] (PDZ KIAA0807(S), PDZ Domain 1), 1 (A450 nm 0-1); in experiment [3], 2 (A450 nm 1-2); in experiment [4] (PDZ BAI-1, PDZ Domain 3) it was 4 (A450 nm 3-4). The Classification in experiment [4] (setting [5]) is 1 (A450 nm 0-1).
Regarding “ELLQFCRTPNPALKNGQYWV (Biotin-ELLQFCRTPNPALKNGQYWV)”, the Classification in experiment [1] (PDZ PTPL-1, PDZ Domain 4) is given as 5 (A450 nm of 4 more than 2× repeated); in experiment [2] (PDZ KIAA807), 1 (A450 nm 0-1); in experiment [2] (PDZ KIAA0807(S), PDZ Domain 1), 1 (A450 nm 0-1); in experiment [3], 5 (A450 nm of 4 more than 2× repeated); in experiment [4] (PDZ BAI-1, PDZ Domain 2), 2 (A450 nm 1-2); in experiment [4] (PDZ BAI-1, PDZ Domain 6), 4 (A450 nm 3-4). Moreover, the Classification in experiment [4] (setting [5]) is reported as 5 (A450 nm of 4 more than 2× repeated).
With `CSCC[C@H](NC(=O)[C@H](C)NC(=O)[C@H](CCCNC(=N)N)NC(=O)CNC(=O)[C@@H](NC(=O)[C@H](Cc1c[nH]c2ccccc12)NC(=O)[C@H](CCCNC(=N)N)NC(=O)CNC(=O)CCCC[C@@H]1SC[C@@H]2NC(=O)N[C@@H]21)[C@@H](C)O)C(=O)N[C@@H](CO)C(=O)N[C@@H](C)C(=O)N[C@@H](Cc1c[nH]c2ccccc12)C(=O)N[C@@H](CCCCN)C(=O)N1CCC[C@H]1C(=O)N[C@H](C(=O)N[C@@H](CCCNC(=N)N)C(=O)N[C@@H](CCCNC(=N)N)C(=O)N[C@@H](CCC(=O)O)C(=O)N[C@H](C(=O)N[C@@H](CCC(=O)O)C(=O)N[C@H](C(=O)O)C(C)C)[C@@H](C)O)[C@@H](C)O` [HPV E6 #35 (modified)] (Biotin-GRWTGRAMSAWKPTRRETEV-OH; C-terminus assumed), the Classification in experiment [1] (PDZ PTPL-1, PDZ Domain 2) is 2 (A450 nm 1-2); in experiment [1] (PDZ PTPL-1, PDZ Domain 4) it was 1 (A450 nm 0-1); in experiment [2] (PDZ KIAA0807(S), PDZ Domain 1, Protein Optimal Conc 0.5) it was 5 (A450 nm of 4 more than 2× repeated); in experiment [2] (setting [6]), 5 (A450 nm of 4 more than 2× repeated); in experiment [3] it was 1 (A450 nm 0-1); in experiment [4] (PDZ BAI-1, PDZ Domain 2) it was 5 (A450 nm of 4 more than 2× repeated). Besides, the Classification in experiment [4] (PDZ BAI-1, PDZ Domain 3) is given as 4 (A450 nm 3-4); in experiment [4] (PDZ BAI-1, PDZ Domain 4), 5 (A450 nm of 4 more than 2× repeated); in experiment [4] (PDZ BAI-1, PDZ Domain 5), 5 (A450 nm of 4 more than 2× repeated); in experiment [4] (PDZ BAI-1, PDZ Domain 6) it was 3 (A450 nm 2-3); in experiment [4] (PDZ Connector Enhancer, PDZ Domain 1), 1 (A450 nm 0-1); in experiment [4] (PDZ FLJ 00011, PDZ Domain 1) it was 3 (A450 nm 2-3). Also, the Classification is given as 4 (A450 nm 3-4) in experiment [4] (PDZ FLJ 11215, PDZ Domain 1) and 1 (A450 nm 0-1) in experiment [4] (setting [5]).
`CC[C@H](C)[C@H](NC(=O)[C@H](Cc1ccc(O)cc1)NC(=O)[C@H](CC(C)C)NC(=O)[C@H](CCC(N)=O)NC(=O)[C@H](Cc1c[nH]cn1)NC(=O)[C@H](CO)NC(=O)[C@H](C)NC(=O)[C@H](CC(C)C)NC(=O)[C@@H](NC(=O)[C@H](CC(=O)O)NC(=O)[C@H](CCSC)NC(=O)[C@H](Cc1ccccc1)NC(=O)[C@@H]1CCCN1C(=O)[C@H](CCCNC(=N)N)NC(=O)[C@@H](NC(=O)[C@H](CC(C)C)NC(=O)[C@H](CC(N)=O)NC(=O)[C@H](CC(=O)O)NC(=O)[C@@H](NC(=O)[C@H](CO)NC(=O)CCCC[C@@H]1SC[C@@H]2NC(=O)N[C@@H]21)[C@@H](C)O)C(C)C)[C@@H](C)O)C(=O)O` [presenilin-2] (Biotin-STDNLVRPFMDTLASHQLYI-OH; C-terminus assumed): the Classification is 2 (A450 nm 1-2) in experiment [1] (PDZ PTPL-1, PDZ Domain 4); 1 (A450 nm 0-1) in experiment [2] (PDZ KIAA0807(S), PDZ Domain 1); 5 (A450 nm of 4 more than 2× repeated) in experiment [3]; 4 (A450 nm 3-4) in experiment [4] (setting [5]).
With “KTMPAAMFRLLTGQETPLYI (Biotin-KTMPAAMFRLLTGQETPLYI) [MINT-2]”, the Classification in experiment [1] (PDZ PTPL-1, PDZ Domain 4) is 4 (A450 nm 3-4); in experiment [2] (PDZ KIAA0807(S), PDZ Domain 1), 4 (A450 nm 3-4); in experiment [2] (setting [6]) it was 3 (A450 nm 2-3); in experiment [3], 4 (A450 nm 3-4); in experiment [4] (setting [5]) it was 3 (A450 nm 2-3).
As to `CC(C)C[C@H](NC(=O)[C@H](Cc1c[nH]c2ccccc12)NC(=O)[C@H](Cc1c[nH]cn1)NC(=O)[C@H](CCCNC(=N)N)NC(=O)[C@H](CC(C)C)NC(=O)[C@@H](NC(=O)[C@H](Cc1ccccc1)NC(=O)[C@H](CCC(N)=O)NC(=O)[C@H](CCCNC(=N)N)NC(=O)[C@@H](NC(=O)[C@H](CCC(=O)O)NC(=O)CNC(=O)[C@H](CCCNC(=N)N)NC(=O)[C@H](CC(=O)O)NC(=O)[C@@H](NC(=O)[C@H](CC(C)C)NC(=O)[C@H](CCC(=O)O)NC(=O)[C@H](CCCNC(=N)N)NC(=O)CCCC[C@@H]1SC[C@@H]2NC(=O)N[C@@H]21)C(C)C)C(C)C)[C@@H](C)O)C(=O)N[C@@H](CCCCN)C(=O)N[C@H](C(=O)O)C(C)C` [Dopamine transporter (Na+-dependent)] (Biotin-RELVDRGEVRQFTLRHWLKV-OH; C-terminus assumed), the Classification in experiment [1] (PDZ PTPL-1, PDZ Domain 4) is on record as 3 (A450 nm 2-3); in experiment [2] (PDZ KIAA807), 4 (A450 nm 3-4); in experiment [2] (PDZ KIAA0807(S), PDZ Domain 1) it was 4 (A450 nm 3-4); in experiment [3], 5 (A450 nm of 4 more than 2× repeated); in experiment [4] (setting [5]) it was 5 (A450 nm of 4 more than 2× repeated).
